According to ChEMBL document CHEMBL1201862, “PubChem BioAssay data set” (2004):
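Compound exposure: 48 hours, 5 concentrations, 96-well plates. The concentration for 50% growth inhibition is given as GI50.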 Activity calls are given as the source filed them. Rule as the data show it: active = GI50 up to about 1.1 µM and inactive = higher.

Legend:
Test in all cases: inhibition of tumour cell growth, NCI panel, 48 h
DMS-114 = system: DMS-114
DLD-1 = system: DLD-1
KM-20L2 = system: KM-20L2
LXFL 529 = system: LXFL 529
BT-549 = system: BT-549
MCF7 = system: MCF7
MDA-N = system: MDA-N
DU-145 = system: DU-145
RXF 631 = system: RXF 631

Structure (SMILES)	GI50 (DMS-114)	GI50 (DLD-1)	GI50 (KM-20L2)	GI50 (LXFL 529)	GI50 (BT-549)	GI50 (MCF7)	GI50 (MDA-N)	GI50 (DU-145)	GI50 (RXF 631)
N/N=c1\c2ccccc2c2ccc3c4ccccc4/c(=N\N)c3c12	> 100 µM (inactive)	> 100 µM (inactive)	> 100 µM (inactive)	> 100 µM (inactive)	–	–	–	–	–
O=C1NC(=S)NC(=O)C1=Cc1ccc(-c2ccccc2)cc1	–	–	–	–	> 100 µM (inactive)	72.8 µM (inactive)	> 100 µM (inactive)	> 100 µM (inactive)	–
CO/C(=N\N=C\c1ccc(Cl)cc1)c1ccncc1	> 100 µM (inactive)	> 100 µM (inactive)	> 100 µM (inactive)	> 100 µM (inactive)	–	–	–	–	–
CC1CCN(c2cc(-c3cc4ccccc4o3)oc(=O)c2C#N)CC1	> 100 µM (inactive)	> 100 µM (inactive)	> 100 µM (inactive)	> 100 µM (inactive)	–	–	–	–	–
O=c1n(Cc2ccccc2)c2ccccc2n1CC1CS1 (stereo not given)	> 100 µM (inactive)	–	> 100 µM (inactive)	> 100 µM (inactive)	–	–	–	–	–
COc1ccc(C2C(Cl)C(=O)N2NC(=O)c2ccc(NC(C)=O)cc2)cc1OC (stereo not given)	–	–	–	> 100 µM (inactive)	–	–	–	–	–
CC(=O)Nc1ccc(C(=O)N2N=C(C)/C(=C/c3cccc(O)c3)C2=O)cc1	> 100 µM (inactive)	> 100 µM (inactive)	–	–	–	–	–	–	–
COc1cc2c3cc1Oc1c(O)c(OC)cc4c1C(Cc1ccc(O)c(c1)Oc1ccc(cc1)CC3N(C)CC2)N(C)CC4 (stereo not given)	20 µM (inactive)	–	5.56 µM (inactive)	4.92 µM (inactive)	–	–	–	–	–
c1ccc(N2CCN(CCCN3CCc4c([nH]c5ccccc45)C3c3cccnc3)CC2)cc1 (stereo not given)	> 100 µM (inactive)	72.8 µM (inactive)	39.4 µM (inactive)	> 74.5 µM (inactive)	–	–	–	–	> 55.7 µM (inactive)
COC(=O)/C(C#N)=C(\N)c1c(C)c2ccccc2oc1=N	–	–	–	–	64.6 µM (inactive)	> 100 µM (inactive)	> 100 µM (inactive)	> 100 µM (inactive)	–
COCOc1ccc(OC)cc1	–	> 100 µM (inactive)	> 100 µM (inactive)	–	–	> 100 µM (inactive)	–	–	–
NS(=O)(=O)c1ccc(NNc2c3ccccc3nc3c(C(=O)Nc4ccc(S(N)(=O)=O)cc4)cccc23)cc1	–	–	–	–	5.85 µM (inactive)	12.9 µM (inactive)	65 µM (inactive)	43.8 µM (inactive)	–
CCc1cccc(CC)c1NC1=CC(=O)C(=O)c2ccccc21	12.4 µM (inactive)	15.6 µM (inactive)	19.8 µM (inactive)	19.4 µM (inactive)	–	–	–	–	13.8 µM (inactive)
CN(C)c1ccc(C=C2C(=O)OC(C)(C)OC2=O)cc1Br	> 100 µM (inactive)	> 100 µM (inactive)	> 100 µM (inactive)	> 100 µM (inactive)	–	–	–	–	> 100 µM (inactive)
CC12C(=O)OC(=O)C1(C)C1C=CC2O1 (stereo not given)	–	–	–	–	> 100 µM (inactive)	> 100 µM (inactive)	> 100 µM (inactive)	> 100 µM (inactive)	–
C/C(=N/O)c1cccc(Nc2nc3ccccc3c3[nH]c4ccccc4c23)c1	–	–	–	–	12.8 µM (inactive)	1.48 µM (inactive)	1.82 µM (inactive)	1.74 µM (inactive)	–
COc1cc2cc(C(=O)N3C[C@@H](CCl)c4c3cc(N)c3ccccc43)[nH]c2c(OC)c1OC	–	–	–	–	0.0442 µM (active)	0.00145 µM (active)	0.000296 µM (active)	< 0.01 µM (active)	–
CC(C)(C)c1cc(Cc2ccc(S(C)(=O)=O)cc2)c(O)c(C(C)(C)C)c1	13.5 µM (inactive)	17.5 µM (inactive)	15.7 µM (inactive)	15.5 µM (inactive)	–	–	–	–	–
Cc1n[nH]c(=O)n1N=C(c1ccccc1)c1ccccc1	–	–	–	–	> 100 µM (inactive)	> 100 µM (inactive)	> 100 µM (inactive)	> 100 µM (inactive)	–
Nc1c(-c2ccccc2[N+](=O)[O-])nc2ccccn12	> 100 µM (inactive)	> 100 µM (inactive)	> 100 µM (inactive)	> 100 µM (inactive)	–	–	–	–	–
CC1(C)OCC=CCO1	–	–	–	–	> 100 µM (inactive)	56 µM (inactive)	> 100 µM (inactive)	> 100 µM (inactive)	–
O=C1OCc2c1cc1cc3c(cc1c2-c1ccc2c(c1)OCO2)OCO3.O=C1OCc2cc3cc4c(cc3c(-c3ccc5c(c3)OCO5)c21)OCO4	–	–	–	–	19 µM (inactive)	15.4 µM (inactive)	1.41 µM (inactive)	11.3 µM (inactive)	–
COc1ccc2nc3cc([N+](=O)[O-])ccc3c(Nc3ccc(S(=O)(=O)Nc4ncccn4)cc3)c2c1	–	–	–	–	> 44.4 µM (inactive)	15.3 µM (inactive)	> 89.1 µM (inactive)	> 100 µM (inactive)	–
O=C1NCCCC12CCCNC2=O	> 100 µM (inactive)	–	> 100 µM (inactive)	> 100 µM (inactive)	–	–	–	–	–
N#Cc1ccc([N+](=O)[O-])cc1NC(N)=S	–	–	> 100 µM (inactive)	16.3 µM (inactive)	–	–	–	–	> 100 µM (inactive)
CCOC(=O)C(C(=O)OCC)c1ccc([N+](=O)[O-])o1	–	4.58 µM (inactive)	19.1 µM (inactive)	3.6 µM (inactive)	–	–	–	–	–
CCOc1cccc2[s+]snc12	–	43.9 µM (inactive)	> 100 µM (inactive)	77.4 µM (inactive)	–	–	–	–	> 100 µM (inactive)
COc1ccc(NC(=O)C(=O)Cc2ccc([N+](=O)[O-])c([N+](=O)[O-])c2CC(=O)C(=O)Nc2ccc(OC)cc2OC)c(OC)c1	> 100 µM (inactive)	> 100 µM (inactive)	> 100 µM (inactive)	> 100 µM (inactive)	–	–	–	–	> 100 µM (inactive)
